Test results taken from US11401243B2, “Quinoline derived small molecule inhibitors of nicotinamide N-methyltransferase (NNMT) and uses thereof” (priority 2017, dated 2022).
Like-named read-outs stand apart in the source and are kept apart here.

Experiments:
human NNMT (mt-hNNMT) = target: T1, human NNMT (mt-hNNMT) (Homo sapiens, UniProt P40261, E101A/E103A/K100A); test: NNMT activity assay (HPLC-UV detection of MNA), NNMT IC50 curves; settings: for IC50: NI = no observable inhibition
T1 sequence (P40261 1-261 K100A/E101A/E103A limits assumed): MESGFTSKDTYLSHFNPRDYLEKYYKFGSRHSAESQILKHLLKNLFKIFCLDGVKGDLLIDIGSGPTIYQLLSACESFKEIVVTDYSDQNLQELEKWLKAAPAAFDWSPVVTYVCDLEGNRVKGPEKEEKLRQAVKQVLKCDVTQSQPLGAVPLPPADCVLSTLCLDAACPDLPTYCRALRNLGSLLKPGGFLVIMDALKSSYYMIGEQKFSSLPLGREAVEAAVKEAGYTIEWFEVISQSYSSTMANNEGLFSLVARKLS

[1] = tested on: NNMT activity in 3T3-L1 pre-adipocytes and differentiated adipocytes; test: Quantitative measurement of NNMT reaction product 1-MNA in cultured cells (LC/MS/MS); type: cell-based; settings: 10 μM, 24 h
Experimental: Differentiation of 3T3-L1 pre-adipocytes. […] Briefly, standard culture media was supplemented with scheduled addition of adipogenic agents [3-isobutyl-1methyl xanthine (IBMX), Sigma Aldrich; MO, USA), dexamethasone (Sigma Aldrich; MO, USA), insulin (Gibco Life Technologies Inc.; Grand Island, N.Y., USA)] over 10 days to promote differentiation of 3T3-L1 fibroblasts into adipocytes; a combination of 1 mM IBMX, 1 μM dexamethasone, and 10 μg/ml of insulin in media were added to fully confluent 3T3-L1 fibroblasts for three days (days 0-3) to initiate differentiation. At day 3, the media was replaced with culture media supplemented with insulin (10 μg/ml). After day 6, cells were maintained in culture media until described experiments were begun (days 8-10).
Cellular 1-MNA concentrations were determined using an ultra-sensitive high-resolution AB Sciex 6500 Q-trap mass spectrometer coupled to an Agilent 1260 ultra-high pressure liquid chromatography (LC/MS/MS) system. Using multiple reaction monitoring (MRM) positive ion mode, the 1-MNA NNMT reaction product was quantified from peak area ratios using AB Sciex Analyst and MultiQuant 2.1 software and the parent precursor and Q3 masses set to m/z 137.1 and 94.1, respectively. Fragment ions at m/z of 92.1 and 77.9 were additionally used for the detection and confirmation of 1-MNA, respectively. […]. To determine the effect of NNMT inhibitor on NNMT activity in the pre-adipocytes and differentiated adipocytes (8×10^4 cells/well seeded prior to beginning differentiation), cells were treated with 30 μM inhibitor for 24 h. Similarly, to compare the relative effects of multiple NNMT inhibitors on NNMT activity in cultured adipocytes, differentiated adipocytes in 6-well plates were treated with 10 μM test compound for 24 h. Following treatment, media was replaced with 80% (v/v) methanol (cooled to −80° C.) containing 500 nmol 6-chloronicotinamide (6-CN) as an internal standard (IS) to extract cellular metabolites. Adherent cells were scrapped, then centrifuged at 4° C. and 13000 g for 15 min, and the resulting supernatants processed using established protocols. […]. Data were subsequently normalized to the IS peak area and transformed as % control values for cross-sample comparisons. […] Choice of inhibitor concentrations and time period was chosen based on the results from the MTT studies.

[2] = Parallel artificial membrane permeability assay (PAMPA); type: in vitro ADME; settings: for Papp at 4 h, 400 μM: read-out: Flux; for Permeability Classification (passive transport): BCS classification
Experimental: Samples were tested in triplicates in three separate experiments.

[3] = tested on: 3T3-L1 pre-adipocytes cells; test: MTT cell viability assay; type: cell-based; settings: 3T3-L1 pre-adipocytes, 24 h
Experimental: Cells were treated for 24 h with 0.1-600 μM NNMT inhibitors in cell culture media. A 24 h time point was chosen based on a previous report of using this time period for transfecting or treating 3T3-L1 cells with NNMT anti-sense oligonucleotides or a small molecule NNMT product inhibitor (1-MNA), respectively, for phenotypic measures. MTT (3-(4,5-dimethylthiazol-2-yl)-2,5-diphenyltetrazolium bromide) (ATCC; Manassas, Va., USA) was added to each well and assayed according to the manufacturer's instructions. Absorbance corresponding to the amount of formazan dye produced by treated cells was normalized to that produced by control (untreated) cells to calculate % viable cells in the treated samples.

[4] = Bi-directional permeability assay with Caco-2 cells; settings: human
Caco-2 cells = test: as above; settings: Caco-2
[5] = target: recombinant human NAMPT enzyme (Homo sapiens, UniProt P43490); test: NAMPT activity assay (fluorometric); type: biochemical; settings: concentrations between 30 and 600 μM (data not shown)
[6] = target: recombinant human PRMT3 enzyme (Homo sapiens, UniProt O60678); test: PRMT3 activity assay (radiometric); type: biochemical; settings: NC: not calculable (no significant inhibition); read-out: IC50, Protein arginine methyltransferase 3
Description: Test compounds were screened in biochemical assays for activity against three structurally similar methyltransferases, including catechol-O-methyltransferase (COMT), DNA (cytosine-5)-methyltransferase 1 (DNMT1), and protein arginine methyltransferase 3 (PRMT3). Additional biochemical assays were used to test the ability of compounds to inhibit nicotinamide phosphoribosyl transferase (NAMPT) and NAD+-dependent protein deacetylase sirtuin 1 (SIRT1), two enzymes in the NAD+ biosynthesis/salvage pathway. All assays were performed by Reaction Biology Corporation (RBC; Malvern, Pa., USA) and complete assay details are noted below. For each test compound, IC50 values were calculated from dose-response curves established with 10 concentrations of a half-log dilution series. For each assay, established enzyme specific inhibitors were included as positive controls for enzyme function and assay reproducibility. IC50 values were determined by non-linear least-squares fitting of a 4-parameter dose-response curve to collected data points (Graphpad Prism 7.0; La Jolla, Calif., USA).
PRMT3 activity assay. […] The analogues, 1,8-diMQ and 5-amino-1MQ were tested at concentrations from 200 μM-10 nM and 600 μM-10 nM, respectively. Reactions were performed with 5 μM histone H3 (histone L-arginine) substrate, 1 μM radiolabeled S-adenosyl-L-[methyl-3H]methionine (SAM) co-substrate, and recombinant human PRMT3 enzyme. Activity was monitored via quantification of radiolabeled reaction product histone [methyl-3H]-L-arginine.

[7] = NNMT Inhibition IC50, mean ± SD of duplicate or triplicate measurements
[8] = 400 μM in PBS, 4 h, room temperature

recombinant human PRMT3 enzyme, sequence (O60678 whole entry): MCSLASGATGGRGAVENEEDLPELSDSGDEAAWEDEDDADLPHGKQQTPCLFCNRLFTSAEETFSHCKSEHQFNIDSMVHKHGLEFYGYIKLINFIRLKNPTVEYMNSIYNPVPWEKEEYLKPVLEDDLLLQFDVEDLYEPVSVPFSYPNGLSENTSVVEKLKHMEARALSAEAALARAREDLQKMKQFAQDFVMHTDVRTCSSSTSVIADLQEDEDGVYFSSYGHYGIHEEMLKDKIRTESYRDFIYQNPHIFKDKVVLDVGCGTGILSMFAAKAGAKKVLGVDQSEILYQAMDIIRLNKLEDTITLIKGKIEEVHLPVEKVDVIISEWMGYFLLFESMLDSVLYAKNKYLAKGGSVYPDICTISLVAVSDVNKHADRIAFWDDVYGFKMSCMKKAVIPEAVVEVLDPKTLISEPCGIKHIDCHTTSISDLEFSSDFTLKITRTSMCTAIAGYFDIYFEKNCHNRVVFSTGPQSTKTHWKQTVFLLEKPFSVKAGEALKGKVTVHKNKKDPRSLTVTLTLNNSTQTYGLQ
recombinant human NAMPT enzyme, sequence (P43490 whole entry): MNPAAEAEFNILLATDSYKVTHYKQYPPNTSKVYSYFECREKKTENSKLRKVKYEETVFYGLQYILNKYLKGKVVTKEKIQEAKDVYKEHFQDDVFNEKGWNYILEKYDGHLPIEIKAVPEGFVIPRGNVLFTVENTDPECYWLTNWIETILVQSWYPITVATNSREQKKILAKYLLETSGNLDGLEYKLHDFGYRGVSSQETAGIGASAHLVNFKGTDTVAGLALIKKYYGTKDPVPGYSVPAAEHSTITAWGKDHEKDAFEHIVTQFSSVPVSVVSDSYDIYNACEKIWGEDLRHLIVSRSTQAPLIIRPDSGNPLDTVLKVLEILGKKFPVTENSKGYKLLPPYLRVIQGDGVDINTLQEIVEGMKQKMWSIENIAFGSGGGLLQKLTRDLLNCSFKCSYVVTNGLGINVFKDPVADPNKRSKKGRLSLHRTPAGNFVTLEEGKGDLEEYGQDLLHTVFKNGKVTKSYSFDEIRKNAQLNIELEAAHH

CC(C(=O)c1ccc(Br)cc1)[n+]1cccc2ccccc21 (stereo not drawn) [1v]
IC50 (human NNMT (mt-hNNMT); [7]): > 1000 µM

O=C1C2CC=C(Cl)CC2C(=O)N1CCC[n+]1cccc2ccccc21 (stereo not drawn) [1w]
IC50 (human NNMT (mt-hNNMT); [7]): > 1000 µM

CC[n+]1ccc(C)c2ccccc21 [2a]
IC50 (human NNMT (mt-hNNMT); [7]): 8.7 ± 2.6 µM

CC[n+]1cccc2cccc(C)c21 [2b]
IC50 (human NNMT (mt-hNNMT); [7]): 3.1 ± 1.4 µM

Cc1cc[n+](CCO)c2ccccc12 [2c]
IC50 (human NNMT (mt-hNNMT); [7]): 33.5 ± 9.9 µM

CC(=O)C[n+]1cccc2cccc(O)c21 [2d]
IC50 (human NNMT (mt-hNNMT); [7]): 40.6 ± 13 µM

OC(CBr)C[n+]1cc(Br)cc2ccccc21 (stereo not drawn) [2e]
IC50 (human NNMT (mt-hNNMT); [7]): > 1000 µM

CCC[n+]1cccc2cc(C)ccc21 [2f]
IC50 (human NNMT (mt-hNNMT); [7]): > 1000 µM

CC(=O)C[n+]1cccc2cc(Cl)ccc21 [2g]
IC50 (human NNMT (mt-hNNMT); [7]): > 1000 µM

CC(=O)C[n+]1cccc2cc(O)ccc21 [2h]
IC50 (human NNMT (mt-hNNMT); [7]): > 1000 µM

Cc1ccc2c(ccc[n+]2CC(=O)c2ccccc2)c1 [2i]
IC50 (human NNMT (mt-hNNMT); read-out: NNMT Inhibition IC50, mean ± SD of duplicate or triplicate measurements): > 1000 µM

C[n+]1cc(N)cc2cc(F)ccc21 [2j, 3-amino-6-fluoro-1-methylquinolin-1-ium]
inhibitory activity against NNMT (in words) (human NNMT (mt-hNNMT)): inhibitory activity | IC50 (human NNMT (mt-hNNMT); [7]): 1.2 ± 0.2 µM | 1-MNA levels in differentiated adipocytes relative to control [1]: significantly decreased | Papp at 4 h, 400 μM [2, 8]: 10.8 nm/s | Permeability Classification (passive transport) [2]: Moderate permeability

Cc1ccc(C(F)(F)F)c2ccc[n+](C)c12 [2k]
inhibitory activity against NNMT (in words) (human NNMT (mt-hNNMT)): inhibitory activity | IC50 (human NNMT (mt-hNNMT); [7]): 87 ± 26.1 µM

C[n+]1ccc(Cl)c2cccc(C(F)(F)F)c21.O=S(=O)([O-])C(F)(F)F [2l, 4-chloro-1-methyl-8-(trifluoromethyl)quinolin-1-ium Trifluoromethanesulfonate]
inhibitory activity against NNMT (in words) (human NNMT (mt-hNNMT)): inhibitory activity | IC50 (human NNMT (mt-hNNMT); [7]): > 1000 µM

C[n+]1c(N)c(N)cc2ccccc21 [2m]
inhibitory activity against NNMT (in words) (human NNMT (mt-hNNMT)): inhibitory activity | IC50 (human NNMT (mt-hNNMT); [7]): 2.8 ± 0.5 µM | 1-MNA levels in differentiated adipocytes relative to control [1]: significantly decreased | cell viability ([3]; 300 μM): did not impact cell viability | cytotoxicity ([3]; 600 μM (highest concentration tested)): ~40% | Papp at 4 h, 400 μM [2, 8]: 39 nm/s | Permeability Classification (passive transport) ([2]; listed as 2,3-diamine-1MQ): High permeability | Permeability Classification (passive transport) ([2]; listed as 2,3-diamino-1MQ): high passive permeability | efflux ratio at 2 h, 10 μM ([4]; Caco-2): 4.03 | Papp A→B at 2 h, 10 μM ([4]; Caco-2, pH 7.4): 52.7 nm/s | Papp B→A at 2 h, 10 μM ([4]; Caco-2, pH 7.4): 212 nm/s | Classification (active transport / efflux) (Caco-2 cells; listed as 2,3-diamine-1MQ): Moderate permeability | Classification (active transport / efflux) (Caco-2 cells; listed as 2,3-diamino-1MQ): moderate bi-directional active transport with moderate efflux ratio

Cc1ccc2c(ccc(C)[n+]2C)c1 [2n]
IC50 (human NNMT (mt-hNNMT); [7]): > 1000 µM

C[n+]1cccc2c(N)c(F)ccc21 [5-amino-6-fluoro-1MQ]
inhibition of NAMPT (in words) [5]: no inhibition

c1ccc2ncccc2c1 [Quinoline]
Flux [2, 8]: 3.39e-05 cm/s | Permeability Classification (passive transport) [2]: High permeability

CNC(=C[N+](=O)[O-])NCCSCc1ccc(CN(C)C)o1 [Ranitidine, reference compound]
Classification (active transport / efflux) (Caco-2 cells): Low permeability

Nc1ncnc2c1ncn2[C@@H]1O[C@H](CSCC[C@H](N)C(=O)O)[C@@H](O)[C@H]1O [SAH, S-adenosylhomocysteine, reference compound]
IC50 [6]: 6.6 ± 1.2 µM
